{"source": "patent US7629471B2", "about": "“Transcriptional factor, process for producing the same and use thereof” (NRL Pharma, Inc., priority 2003, dated 2009)", "key": {"aromatase": {"target": "T1, aromatase (Homo sapiens, UniProt P11511)", "T1 sequence (P11511 1-503)": "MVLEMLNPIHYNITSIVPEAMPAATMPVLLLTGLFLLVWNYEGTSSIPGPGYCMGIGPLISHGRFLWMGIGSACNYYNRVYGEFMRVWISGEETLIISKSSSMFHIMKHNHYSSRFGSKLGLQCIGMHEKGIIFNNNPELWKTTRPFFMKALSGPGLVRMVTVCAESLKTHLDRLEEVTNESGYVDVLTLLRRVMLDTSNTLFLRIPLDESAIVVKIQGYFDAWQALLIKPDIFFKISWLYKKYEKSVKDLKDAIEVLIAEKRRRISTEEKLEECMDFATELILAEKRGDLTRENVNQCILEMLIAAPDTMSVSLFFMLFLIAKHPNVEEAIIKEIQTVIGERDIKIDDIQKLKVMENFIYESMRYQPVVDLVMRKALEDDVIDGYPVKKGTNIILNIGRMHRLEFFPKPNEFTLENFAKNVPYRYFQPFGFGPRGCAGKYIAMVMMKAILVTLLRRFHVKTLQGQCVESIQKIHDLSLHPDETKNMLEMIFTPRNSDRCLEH", "conditions": "cited from earlier work"}, "rodents [1]": {"system": "rodents", "conditions": "rodents (mice, rats); cited from earlier work"}, "ICR male mice": {"system": "ICR male mice", "assay_type": "in vivo", "conditions": "added at 0.1% to feed, 1 week; control group 143", "excerpt": "Fifty ICR male mice (5 weeks of age) were randomly divided into 5 groups of 10 animals each and housed in polycarbonate cages at 5 animals per cage. […] […] After 1 week, the blood was collected from the heart of each mouse to determine the level of serum total cholesterol by an enzymatic method."}, "rodents [2]": {"system": "rodents", "conditions": "cited from earlier work"}, "hypertensive rat models": {"system": "hypertensive rat models", "conditions": "cited from earlier work"}, "Ras farnesylation": {"system": "Ras farnesylation", "conditions": "cited from earlier work"}, "animal virus": {"system": "animal virus", "conditions": "without affecting nucleic acid and protein biosynthesis; cited from earlier work"}, "[3]": {"system": "mice starved for a 48-hour period", "conditions": "trace amount by oral route 2 hours before feed intake; 2-hour intake time; mice starved 48 hours; cited from earlier work"}, "[4]": {"system": "arthritis in rats induced by adjuvant injection", "conditions": "adjuvant injection into footpads; cited from earlier work"}, "[5]": {"conditions": "cited from earlier work"}, "C57BL/ksj db/db mice": {"system": "C57BL/ksj db/db mice", "assay": "Effect on genetically obese diabetic mice: urinary sugar excretion (Example 6)", "assay_type": "in vivo", "protocol": "A solution of Compound-16 (1 g) in acetone (about 50 ml) was sprinkled over and mixed well with 1 kg of rodent standard feed (CE-2, CLEA Japan, Inc., Japan), followed by air-drying in a chamber. The content of Compound-16 in this feed was about 0.1%. In the same manner, pellet chow samples containing 0.05% to 0.025% of Compound-16 were prepared and used for the experiment. To prepare control feed, the same powder feed was sprinkled with acetone and palletized. Twenty male db/db mice (8 weeks of age after birth) were randomly divided into 4 groups. Each group was housed in a cage for urine collection and fed with the Compound-16-containing feed or the control feed for 21 days. During the housing, the mice were allowed to take feed and water ad libitum and their urine was collected at the intervals indicated in Table 1 to determine urinary sugar excretion by an enzymatic method. The level of urinary sugar excretion was expressed as the mean per animal."}, "Male ICR mice": {"system": "Male ICR mice", "assay": "Effect on serum total cholesterol: in-feed vs forced oral administration (Table 1)", "assay_type": "in vivo", "conditions": "1 week, n = 6, tested in triplicate", "excerpt": "In contrast, the solubility of Compound-1 in water is as extremely low as about 0.7 g/l; Compounds-1 and -2 are poles apart in terms of solubility in water. […] However, even when both compounds are simply mixed in a mechanical manner into feed in an amount of 0.1% or even when both compounds are given for forced oral administration in the same drug amount calculated from feed intake, there is no reproducibility in their efficacy unlike the case where their acetone solutions are sprayed over feed."}, "db/db mice": {"system": "db/db mice", "assay": "Urinary sugar excretion in db/db mice: in-feed vs forced oral administration (Table 1)", "assay_type": "in vivo", "conditions": "for % Reduction of urinary sugar excretion: n = 4, tested in triplicate"}, "[6]": {"conditions": "Mechanical mixing into feed, 0.1%"}, "[7]": {"conditions": "Spraying of acetone solution over feed, 0.1% in feed"}}, "note": "“And” between values parts separate entries of the source, which are not always exact repeats. Equal entries are not always repeated. Where two headings read alike, the source gives them in different places. Marks after values point to notes of the source that are not given here."}
{"smiles": "CC(/C=C/[C@@]1(C)[C@H](C)C=CC(=O)[C@@H]1C)=C\\Cc1c(O)c(Cl)c(C)c(C=O)c1O", "note": "[cylindrochlorin]", "values": [{"measurement": "Aromatase inhibition", "setting": "aromatase", "result": "strong inhibitory substance"}, {"measurement": "Serum cholesterol lowering", "setting": "rodents [1]", "result": "stronger effect of lowering serum cholesterol"}]}
{"smiles": "CC(=O)N[C@@H](CCCCN=Cc1c(C)c(Cl)c(OCC(=O)O)c(C/C=C(C)/C=C/[C@@]2(C)[C@H](C)CCC(=O)[C@@H]2C)c1O)C(=O)O", "note": "[Compound-19]", "values": [{"measurement": "Serum total cholesterol", "setting": "ICR male mice", "result": "95** mg/dl"}]}
{"smiles": "C/C(=C\\Cc1c(O)c(Cl)c(C)c(C=O)c1O)CC/C=C(\\C)[C@@H]1CC(=O)C(C)(C)O1", "note": "[ascofuranone]", "values": [{"measurement": "Serum cholesterol lowering", "setting": "rodents [1]", "result": "serum cholesterol-lowering effect"}, {"measurement": "Anticancer effect", "setting": "rodents [2]", "result": "anticancer effect"}, {"measurement": "Progression to renal failure", "setting": "hypertensive rat models", "result": "prevent hypertensive rat models from entering renal failure"}]}
{"smiles": "CC(/C=C/[C@@]1(C)[C@H](C)CCC(=O)[C@@H]1C)=C\\Cc1c(O)c(Cl)c(C)c(C=NCC(N)=O)c1O", "note": "[Compound-13]", "values": [{"measurement": "Serum total cholesterol", "setting": "ICR male mice", "result": "112** mg/dl"}]}
{"smiles": "CC(C=C[C@]1(C)[C@H](C)C(=O)CC[C@@H]1C)=CCc1c(O)c(Cl)c(C)c(C=O)c1O", "note": "[Ascochlorin, 3-[5-[1(R),2(S),6(S)-trimethyl-3-oxocyclohexyl]-3-methyl-2,4-pentadienyl]-2,4-dihydroxy-5-chloro-6-methylbenzaldehyde]", "values": [{"measurement": "Inhibition of Ras farnesylation", "setting": "Ras farnesylation", "result": "inhibited Ras farnesylation"}, {"measurement": "Animal virus growth", "setting": "animal virus", "result": "arrests animal virus growth"}, {"measurement": "Serum cholesterol lowering", "setting": "rodents [1]", "result": "effect of lowering serum cholesterol"}, {"measurement": "Anorectic effect (feed intake)", "setting": "[3]", "result": "half inhibition of feed intake"}, {"measurement": "Inflammatory swelling", "setting": "[4]", "result": "alleviating inflammatory swelling"}, {"measurement": "Absorption from the digestive tract", "setting": "[5]; in vivo, po", "result": "most of them pass through the digestive tract without being absorbed"}]}
{"smiles": "CC(=O)N[C@@H](CCCCN=Cc1c(C)c(Cl)c(O)c(C/C=C(C)/C=C/[C@@]2(C)[C@H](C)CCC(=O)[C@@H]2C)c1O)C(=O)O", "note": "[Compound-16]", "values": [{"measurement": "Level of urinary sugar excretion", "setting": "C57BL/ksj db/db mice; 0.025% in feed, 0 days (24 h urine beginning 1 day before initiation, baseline)", "result": 890, "unit": "mg/mouse/day"}, {"measurement": "Level of urinary sugar excretion", "setting": "C57BL/ksj db/db mice; 0.025% in feed, 1 day", "result": 600, "unit": "mg/mouse/day"}, {"measurement": "Level of urinary sugar excretion", "setting": "C57BL/ksj db/db mice; 0.025% in feed, 3 days", "result": 452, "unit": "mg/mouse/day"}, {"measurement": "Level of urinary sugar excretion", "setting": "C57BL/ksj db/db mice; 0.025% in feed, 7 days", "result": 175, "unit": "mg/mouse/day"}, {"measurement": "Level of urinary sugar excretion", "setting": "C57BL/ksj db/db mice; 0.025% in feed, 14 days", "result": 201, "unit": "mg/mouse/day"}, {"measurement": "Level of urinary sugar excretion", "setting": "C57BL/ksj db/db mice; 0.025% in feed, 21 days", "result": 134, "unit": "mg/mouse/day"}, {"measurement": "Level of urinary sugar excretion", "setting": "C57BL/ksj db/db mice; 0.05% in feed, 0 days (24 h urine beginning 1 day before initiation, baseline)", "result": 786, "unit": "mg/mouse/day"}, {"measurement": "Level of urinary sugar excretion", "setting": "C57BL/ksj db/db mice; 0.05% in feed, 1 day", "result": 541, "unit": "mg/mouse/day"}, {"measurement": "Level of urinary sugar excretion", "setting": "C57BL/ksj db/db mice; 0.05% in feed, 3 days", "result": 231, "unit": "mg/mouse/day"}, {"measurement": "Level of urinary sugar excretion", "setting": "C57BL/ksj db/db mice; 0.05% in feed, 7 days", "result": 253, "unit": "mg/mouse/day"}, {"measurement": "Level of urinary sugar excretion", "setting": "C57BL/ksj db/db mice; 0.05% in feed, 14 days", "result": 170, "unit": "mg/mouse/day"}, {"measurement": "Level of urinary sugar excretion", "setting": "C57BL/ksj db/db mice; 0.05% in feed, 21 days", "result": 52, "unit": "mg/mouse/day"}, {"measurement": "Level of urinary sugar excretion", "setting": "C57BL/ksj db/db mice; 0.1% in feed, 0 days (24 h urine beginning 1 day before initiation, baseline)", "result": 814, "unit": "mg/mouse/day"}, {"measurement": "Level of urinary sugar excretion", "setting": "C57BL/ksj db/db mice; 0.1% in feed, 1 day", "result": 187, "unit": "mg/mouse/day"}, {"measurement": "Level of urinary sugar excretion", "setting": "C57BL/ksj db/db mice; 0.1% in feed, 3 days", "result": 30, "unit": "mg/mouse/day"}, {"measurement": "Level of urinary sugar excretion", "setting": "C57BL/ksj db/db mice; 0.1% in feed, 7 days", "result": 15, "unit": "mg/mouse/day"}, {"measurement": "Level of urinary sugar excretion", "setting": "C57BL/ksj db/db mice; 0.1% in feed, 14 days", "result": 10, "unit": "mg/mouse/day"}, {"measurement": "Level of urinary sugar excretion", "setting": "C57BL/ksj db/db mice; 0.1% in feed, 21 days", "result": 10, "unit": "mg/mouse/day"}]}
{"smiles": "COc1c(Cl)c(C)c(C=O)c(O)c1C/C=C(C)/C=C/[C@@]1(C)[C@H](C)CCC(=O)[C@@H]1C", "note": "[Compound-1, 4-O-methylascochlorin]", "values": [{"measurement": "Decrease in serum cholesterol levels", "setting": "Male ICR mice; Forced oral administration, same drug amount calculated from feed intake", "result": "No decrease in all three"}, {"measurement": "Decrease in serum cholesterol levels", "setting": "Male ICR mice; [6]", "result": "No decrease in all three tests"}, {"measurement": "Decrease in serum cholesterol levels", "setting": "Male ICR mice; [7]", "result": "15.2%-25.1% decrease, P < 0.01"}, {"measurement": "% Reduction of urinary sugar excretion", "setting": "db/db mice; [6]", "result": "No inhibitory effect is observed"}, {"measurement": "Progression to renal failure", "setting": "hypertensive rat models", "result": "prevent hypertensive rat models from entering renal failure"}, {"measurement": "Absorption from the digestive tract", "setting": "[5]; orally administered to small animals (rats, mice) in the fasting state", "result": "most of them pass through the digestive tract without being absorbed"}, {"measurement": "Solubility in water", "setting": "Solubility in water", "result": "about 0.7 g/l"}, {"measurement": "Solubility in water (in words)", "setting": "Solubility in water", "result": "substantially insoluble in water"}]}
{"smiles": "CC(C=CC1(C)C(C)CCC(=O)C1C)=CCc1c(O)c(C=O)c(C)c(Cl)c1OCC(=O)O", "note": "(centres unmarked) [Compound-2, 4-O-carboxymethylascochlorin]", "values": [{"measurement": "Decrease in serum cholesterol levels", "setting": "Male ICR mice; [7]", "result": "17.5%-22.7% decrease, P < 0.01"}, {"measurement": "Toxic death", "setting": "db/db mice; Forced oral administration, db/db mice, deaths/animals in first, second, third test", "result": "2/4 in the first test and 1/4 in the second test and 1/4 in the third test"}, {"measurement": "% Reduction of urinary sugar excretion", "setting": "db/db mice; Forced oral administration", "result": "Not effective"}, {"measurement": "Body weight gain", "setting": "db/db mice; Mechanical mixing into feed, db/db mice", "result": "body weight gain is inhibited."}, {"measurement": "Amount dissolved in water", "setting": "Solubility in water; in the small intestine (pH 7.2 to 7.4)", "result": "≥ 6", "unit": "%"}]}
